{
  "source": "patent US9539298B2",
  "about": "“Lissencephaly therapeutic agent” (OSAKA CITY UNIVERSITY, priority 2010, dated 2017)",
  "key": {"[1]": {"biological_target": "T1, μ-calpain (derived from human red blood cells) (Homo sapiens, UniProt P07384)", "T1 construct": "derived from human red blood cells; purchased Cosmo Bio Co., Ltd; host or cells: human red blood cells (tissue-purified)", "T1 sequence (P07384 1-714)": "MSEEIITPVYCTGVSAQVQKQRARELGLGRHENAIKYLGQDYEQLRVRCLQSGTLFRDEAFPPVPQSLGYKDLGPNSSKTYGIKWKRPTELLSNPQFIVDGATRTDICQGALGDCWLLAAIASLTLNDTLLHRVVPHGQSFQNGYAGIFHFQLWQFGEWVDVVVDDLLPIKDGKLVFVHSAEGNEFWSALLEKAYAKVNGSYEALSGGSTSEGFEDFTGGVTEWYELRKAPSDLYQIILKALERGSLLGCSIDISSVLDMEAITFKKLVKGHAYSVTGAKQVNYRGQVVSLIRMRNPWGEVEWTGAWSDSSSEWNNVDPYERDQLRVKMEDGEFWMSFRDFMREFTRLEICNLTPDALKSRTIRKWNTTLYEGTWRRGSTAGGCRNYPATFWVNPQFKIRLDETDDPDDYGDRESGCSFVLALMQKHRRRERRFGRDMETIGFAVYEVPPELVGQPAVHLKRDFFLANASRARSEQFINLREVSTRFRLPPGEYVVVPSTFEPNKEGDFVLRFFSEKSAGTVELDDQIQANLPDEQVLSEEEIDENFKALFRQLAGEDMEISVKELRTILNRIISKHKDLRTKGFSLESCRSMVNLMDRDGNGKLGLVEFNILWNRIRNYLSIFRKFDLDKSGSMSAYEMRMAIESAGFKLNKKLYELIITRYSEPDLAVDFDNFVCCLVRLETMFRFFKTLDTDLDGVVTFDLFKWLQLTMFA", "T1 sequence (P04632 1-268 partner)": "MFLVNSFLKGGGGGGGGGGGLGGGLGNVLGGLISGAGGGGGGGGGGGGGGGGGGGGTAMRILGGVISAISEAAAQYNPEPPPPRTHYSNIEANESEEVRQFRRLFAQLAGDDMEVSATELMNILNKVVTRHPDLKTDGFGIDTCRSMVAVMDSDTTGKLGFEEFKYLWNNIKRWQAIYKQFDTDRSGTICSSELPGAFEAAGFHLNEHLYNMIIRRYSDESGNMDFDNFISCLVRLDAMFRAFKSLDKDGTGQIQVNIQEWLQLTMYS", "experiment": "Measurement of inhibitory activity against μ-calpain", "format": "biochemical", "conditions": "casein substrate, 30° C., 60 minutes; read-out: enzyme inhibitory activities (μM) μ-calpain", "method": "The inhibitory activity against μ-calpain and m-calpain was assayed according to a published method (Anal. Biochem. 1993, vol. 208, p. 387-392). More specifically, 200 μL of a reaction solution containing 0.5 mg/mL casein, 50 mM Tris-HCl buffer (pH 7.4), 20 mM dithiothreitol and 1.0 nmol μ-calpain (derived from human red blood cells, Cosmo Bio Co., Ltd.) or m-calpain (derived from porcine kidney, Cosmo Bio Co., Ltd.) was added to individual 2.5 μL portions of DMSO solution containing a varying concentration of a test sample in a 96-well plate. Then, 50 μL of 20 mM aqueous calcium chloride was added thereto, and reaction was performed at 30° C. for 60 minutes. 100 μL of the reaction solution was transferred to another 96-well plate, and purified water (50 μL) and 50% aqueous solution (100 μL) of Protein Assay Dye Reagent (available from Bio-Rad Laboratories, Inc.; catalogue No. 500-600) were added thereto. The reaction mixture was allowed to stand at room temperature for 15 minutes, and its absorbance was measured at 595 nm. The absorbance of a reaction mixture prepared in the same manner as mentioned above, except that a DMSO solution containing no sample was used as a control value; and the absorbance of a reaction mixture prepared in the same manner as mentioned above, except that a 1 mM aqueous EDTA solution (50 μL) was used in place of 20 mM aqueous calcium chloride, was used as a blank value. […] Inhibition rate (%){1−(measured value−blank test value)/(control value−blank test value)}×100\nThe concentrations (IC50) are shown in Table 1 as enzyme (calpain) inhibitory activities (μM)."}, "[2]": {"tested_on": "LIS1 heterozygous mouse embryos", "experiment": "LIS1 protein in mouse embryo brains after SNJ-1945 intraperitoneal administration", "format": "in vivo", "method": "A neo(−)129S-Pafah1b1^tm2Awb/J homozygous male mouse lacking neo gene was mated with five homozygous EII-Cre transgenic female mice (FVB/N-Tg (EIIa-cre) C5379Lmgd/J, The Jackson Laboratory) by raising them in the same mouse cage. In total, six sets of mouse cages were prepared for the mating experiment. The neo(−)129S-Pafah1b1^tm2Awb/J homozygous mouse were prepared in the same manner as above. Plug check (confirmation of mating) was carried out every morning between 7 and 10 am, thereby determining the gestation cycle. SNJ-1945 was dissolved in dimethyl sulfoxide (DMSO; Sigma, D8779) at a concentration of 100 mg/ml, and intraperitoneally injected to the pregnant mice so that the administration amount became 100 μg per gram of body weight upon Day 12 of embryo period (E12) (intraperitoneal administration). To determine the effect of SNJ-1945 administration, LIS1 proteins of normal mouse embryos and those of LIS1 heterozygous mouse embryos (administered with SNJ-1945) were measured. […]\nPregnant mice were killed by cervical fracture, and the mouse embryos were immediately isolated to obtain the brain tissues. For the measurement of LIS1 protein amount, the brain weights were immediately measured as soon as the brains were removed."}},
  "data": [
    {"smiles": "COCCOCCOC(=O)N[C@@H](CC(C)C)C(=O)N[C@@H](Cc1ccccc1)C(=O)C(=O)NC1CC1", "note": "[compound 17, ((1S)-1-((((1S)-1-Benzyl-2,3-dioxo-3-(cyclopropylamino)propyl)amino)carbonyl)-3-methylbutyl)carbamic acid 5-methoxy-3-oxapentyl ester]", "values": [
      {"measurement": "IC50", "setting": "[1]", "value": 0.17, "unit": "µM"},
      {"measurement": "LIS1 protein amount in embryo brain", "setting": "[2]; 100 μg per gram of body weight IP to pregnant mice, E12, FIG. 6", "value": "recovered to a substantially normal level"},
      {"measurement": "duration of the effect on LIS1 protein after a single dose", "setting": "[2]; 100 μg/g IP to pregnant mice, E12", "value": "continued for at least three days"}
    ]}
  ]
}
